Experimental data: US10619138B2, “Herbicide-resistant hydroxyphenylpyruvate dioxygenases” (BASF SE, priority 2013, dated 2020)

Legend:
[1] = system: untransformed wild-type (WT) Arabidopsis plants; experiment: Greenhouse herbicide spray test, wild-type plants; assay type: in vivo, Arabidopsis thaliana; conditions: two weeks after treatment, mean of three plants
Text: (§1) Additionally, T1 and T2 transgenic Arabidopsis plants can be tested for improved tolerance to HPPD-inhibiting herbicides in greenhouse studies. Herbicide injury scoring is done 2-3 weeks after treatment and is rated on a scale of 0 to 100%, 0% being no injury and 100% being complete death.
(§2) Transgenic Arabidopsis plants were sprayed with a range of doses from 1.56-50 g/ha with HPPD-inhibiting herbicides and injury evaluations were taken two weeks after treatment. […] As depicted in Table 6, control plants are severely injured by all doses of herbicide applied, with at least 70% of leaf material being damaged at the lowest application rate. For example, transgenic plants expressing Scenedesmus HPPD have an excellent tolerance to all herbidcides tested. […] After application of Inhibitor 2, only 18% of leaf material was damaged resulting in a 5-fold tolerance compared to the WT at the highest application rate.

[2] = biological target: T1, Arabidopsis HPPD (SEQ ID NO: 42) (Arabidopsis thaliana, UniProt P93836); experiment: In vitro HPPD activity assay (HGA by HPLC), wildtype enzyme characterization; assay type: biochemical; conditions: normalized on Arabidopsis wild-type HPPD; reference enzyme
T1 construct: Arabidopsis (42); His tag; made in house; host or cells: E. coli BL21 (DE3)
T1 sequence (P93836 1-445): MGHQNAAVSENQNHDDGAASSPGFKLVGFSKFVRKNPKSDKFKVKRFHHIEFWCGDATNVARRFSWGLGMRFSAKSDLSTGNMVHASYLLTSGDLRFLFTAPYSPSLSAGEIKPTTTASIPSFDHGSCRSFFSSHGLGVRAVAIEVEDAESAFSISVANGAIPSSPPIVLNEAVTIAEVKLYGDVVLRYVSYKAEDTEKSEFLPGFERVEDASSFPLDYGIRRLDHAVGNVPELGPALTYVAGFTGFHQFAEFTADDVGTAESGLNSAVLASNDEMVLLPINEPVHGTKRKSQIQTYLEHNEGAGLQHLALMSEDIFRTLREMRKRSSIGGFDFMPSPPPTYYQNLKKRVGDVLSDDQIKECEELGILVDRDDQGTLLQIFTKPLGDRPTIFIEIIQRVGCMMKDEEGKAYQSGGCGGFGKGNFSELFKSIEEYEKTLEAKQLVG
Procedure, shortened: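 Purified recombinant HPPD (0.2 units) in 150 mM potassium phosphate pH 7.0 with 50 mM ascorbate, catalase and 1 μM FeSO4, 45 min at room temperature; acid-stopped, HGA quantified by reversed-phase UPLC with electrochemical detection.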

[3] = system: Mucilaginibacter HPPD (SEQ ID NO: 28); experiment: In vitro HPPD activity assay, tolerance index; assay type: biochemical, Mucilaginibacter paludis; conditions: normalized on Arabidopsis wild-type HPPD
Procedure, shortened: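 Purified recombinant wild-type HPPD (0.2 units) was incubated 45 min at room temperature in 150 mM potassium phosphate pH 7.0 with 50 mM ascorbate, catalase and 1 μM FeSO4. Homogentisic acid was measured by reversed-phase UPLC with electrochemical detection. Tolerance index combines activity and inhibitor sensitivity, normalized to Arabidopsis wild-type HPPD.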

[4] = system: transgenic Arabidopsis plants expressing Acidobacterium HPPD; experiment: Greenhouse herbicide spray test, transgenic plants (T2); assay type: in vivo, Arabidopsis thaliana; conditions: two weeks after treatment
Text: as §1, §2

[5] = system: transgenic Arabidopsis plants expressing Algoriphagus HPPD; experiment: as above; assay type: in vivo, Arabidopsis thaliana; conditions: two weeks after treatment
Text: as §1, §2

[6] = system: transgenic Arabidopsis plants expressing Scenedesmus HPPD; experiment: as above; assay type: in vivo, Arabidopsis thaliana; conditions: two weeks after treatment
Text: as §1, §2

CSc1c(Cl)cc(F)c(C(=O)Nc2nnnn2C)c1Cl [Inhibitor 11, 2,4-dichloro-6-fluoro-3-methylsulfanyl-N-(1-methyltetrazol-5-yl)benzamide]
Injury evaluation, scale 0-100% ([1]; 3.125 g/ha): 70%
Injury evaluation, scale 0-100% ([1]; 12.5 g/ha): 83%
TI (normalized tolerance index) [2]: 1
TI (normalized tolerance index) [3]: 0.2
Injury evaluation, scale 0-100% ([4]; Acidobacterium HPPD Event 1, 3.125 g/ha): 53%
Injury evaluation, scale 0-100% ([4]; Acidobacterium HPPD Event 1, 6.25 g/ha): 65%
Injury evaluation, scale 0-100% ([4]; Acidobacterium HPPD Event 1, 12.5 g/ha): 98%
Injury evaluation, scale 0-100% ([4]; Acidobacterium HPPD Event 2, 3.125 g/ha): 58%
Injury evaluation, scale 0-100% ([4]; Acidobacterium HPPD Event 2, 6.25 g/ha): 93%
Injury evaluation, scale 0-100% ([4]; Acidobacterium HPPD Event 2, 12.5 g/ha): 98%
Injury evaluation, scale 0-100% ([5]; Algoriphagus HPPD Event 1, 3.125 g/ha): 55%
Injury evaluation, scale 0-100% ([5]; Algoriphagus HPPD Event 1, 6.25 g/ha): 73%
Injury evaluation, scale 0-100% ([5]; Algoriphagus HPPD Event 1, 12.5 g/ha): 98%
Injury evaluation, scale 0-100% ([5]; Algoriphagus HPPD Event 2, 3.125 g/ha): 68%
Injury evaluation, scale 0-100% ([5]; Algoriphagus HPPD Event 2, 6.25 g/ha): 90%
Injury evaluation, scale 0-100% ([5]; Algoriphagus HPPD Event 2, 12.5 g/ha): 97%
Injury evaluation, scale 0-100% ([6]; Scenedesmus HPPD Event 1, 3.125 g/ha): 13%
Injury evaluation, scale 0-100% ([6]; Scenedesmus HPPD Event 1, 6.25 g/ha): 15%
Injury evaluation, scale 0-100% ([6]; Scenedesmus HPPD Event 1, 12.5 g/ha): 33%
Injury evaluation, scale 0-100% ([6]; Scenedesmus HPPD Event 2, 3.125 g/ha): 13%
Injury evaluation, scale 0-100% ([6]; Scenedesmus HPPD Event 2, 6.25 g/ha): 13%
Injury evaluation, scale 0-100% ([6]; Scenedesmus HPPD Event 2, 12.5 g/ha): 15%
tolerance of transgenic plants (in words) ([6]; doses 1.56-50 g/ha): outstanding tolerance
